Like-named read-outs stand apart in the source and are kept apart here.
Experiments:
JAK2 = molecular target: T1, JAK2 (Homo sapiens, UniProt O60674); test: Recombinant Human JAK2 Kinase Assay (TRF); format: biochemical; details: read-out: JAK2 Potency
T1 construct: host or cells: baculovirus expression system
Summary of the method: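 TRF read-out: Eu-N1 PY100 anti-phosphotyrosine antibody detects product. Enzyme is baculovirus-expressed JAK2 at 15 ng/ml; substrate is a biotinyl 15-mer peptide bound to Neutravidin-coated wells. Buffer 20 mM HEPES pH 7.2, 0.2 μM ATP, 1 mM MnCl2, 0.1% BSA, 2.5% DMSO final; 20 min, RT.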

ALK = molecular target: T2, ALK (Homo sapiens, UniProt Q9UM73); test: ALK Kinase Assay (ELISA/TRF, PLC-γ substrate); format: biochemical; details: read-out: ALK Potency
T2 construct: host or cells: baculovirus expression system
T2 sequence (Q9UM73 19-1620): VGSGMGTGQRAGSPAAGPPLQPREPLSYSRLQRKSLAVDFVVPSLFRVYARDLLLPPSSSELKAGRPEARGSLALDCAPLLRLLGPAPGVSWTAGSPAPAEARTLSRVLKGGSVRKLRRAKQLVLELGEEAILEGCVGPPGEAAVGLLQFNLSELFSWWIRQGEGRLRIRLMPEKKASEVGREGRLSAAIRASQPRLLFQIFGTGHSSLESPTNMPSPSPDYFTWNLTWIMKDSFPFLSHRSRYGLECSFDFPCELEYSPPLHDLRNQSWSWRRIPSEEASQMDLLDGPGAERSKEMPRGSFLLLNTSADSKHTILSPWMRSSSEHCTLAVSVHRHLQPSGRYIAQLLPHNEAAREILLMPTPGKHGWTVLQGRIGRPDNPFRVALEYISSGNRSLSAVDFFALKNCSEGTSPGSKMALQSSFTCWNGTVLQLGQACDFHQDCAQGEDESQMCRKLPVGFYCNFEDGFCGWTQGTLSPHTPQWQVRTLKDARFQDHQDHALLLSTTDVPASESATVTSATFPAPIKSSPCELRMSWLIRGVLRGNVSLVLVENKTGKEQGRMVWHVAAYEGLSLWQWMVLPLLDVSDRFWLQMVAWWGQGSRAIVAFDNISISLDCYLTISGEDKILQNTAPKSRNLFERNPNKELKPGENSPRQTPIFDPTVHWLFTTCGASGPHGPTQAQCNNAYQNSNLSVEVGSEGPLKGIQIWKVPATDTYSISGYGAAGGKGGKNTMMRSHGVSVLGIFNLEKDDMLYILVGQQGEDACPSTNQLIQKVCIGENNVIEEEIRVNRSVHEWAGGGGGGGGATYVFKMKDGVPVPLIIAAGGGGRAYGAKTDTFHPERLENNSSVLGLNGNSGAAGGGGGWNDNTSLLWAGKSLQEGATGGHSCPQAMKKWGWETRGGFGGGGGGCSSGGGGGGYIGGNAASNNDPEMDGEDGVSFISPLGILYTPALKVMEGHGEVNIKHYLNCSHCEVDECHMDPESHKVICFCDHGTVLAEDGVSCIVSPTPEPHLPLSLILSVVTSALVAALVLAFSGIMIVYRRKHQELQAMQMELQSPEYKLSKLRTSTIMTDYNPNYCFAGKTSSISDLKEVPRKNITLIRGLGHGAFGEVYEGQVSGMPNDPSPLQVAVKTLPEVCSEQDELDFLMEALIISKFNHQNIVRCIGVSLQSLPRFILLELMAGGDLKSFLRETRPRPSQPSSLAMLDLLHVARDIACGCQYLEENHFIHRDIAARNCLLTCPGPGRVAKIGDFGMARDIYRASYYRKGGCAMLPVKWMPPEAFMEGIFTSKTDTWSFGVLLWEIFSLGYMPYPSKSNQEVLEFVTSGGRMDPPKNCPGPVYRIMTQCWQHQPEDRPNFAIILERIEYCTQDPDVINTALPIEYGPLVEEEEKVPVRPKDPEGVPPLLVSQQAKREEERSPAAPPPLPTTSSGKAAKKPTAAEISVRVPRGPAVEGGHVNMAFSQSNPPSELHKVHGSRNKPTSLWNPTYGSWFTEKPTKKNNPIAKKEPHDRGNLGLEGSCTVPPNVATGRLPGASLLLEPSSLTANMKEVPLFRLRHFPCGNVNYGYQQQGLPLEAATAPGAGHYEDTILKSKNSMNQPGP
Summary of the method: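 PLC-γ coat 10 μg/mL in TBS; ALK 30 ng/ml added to start; 37° C, 15 min; Eu-N1 PT66 antibody detection (TRF). IC50: % inhibition vs log10 [cpd], variable-slope sigmoidal fit.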

[1] = JAK2 kinase inhibition, 0.2 μM ATP
[2] = ALK kinase inhibition, 1 μM ATP

T1 sequence (O60674 whole entry): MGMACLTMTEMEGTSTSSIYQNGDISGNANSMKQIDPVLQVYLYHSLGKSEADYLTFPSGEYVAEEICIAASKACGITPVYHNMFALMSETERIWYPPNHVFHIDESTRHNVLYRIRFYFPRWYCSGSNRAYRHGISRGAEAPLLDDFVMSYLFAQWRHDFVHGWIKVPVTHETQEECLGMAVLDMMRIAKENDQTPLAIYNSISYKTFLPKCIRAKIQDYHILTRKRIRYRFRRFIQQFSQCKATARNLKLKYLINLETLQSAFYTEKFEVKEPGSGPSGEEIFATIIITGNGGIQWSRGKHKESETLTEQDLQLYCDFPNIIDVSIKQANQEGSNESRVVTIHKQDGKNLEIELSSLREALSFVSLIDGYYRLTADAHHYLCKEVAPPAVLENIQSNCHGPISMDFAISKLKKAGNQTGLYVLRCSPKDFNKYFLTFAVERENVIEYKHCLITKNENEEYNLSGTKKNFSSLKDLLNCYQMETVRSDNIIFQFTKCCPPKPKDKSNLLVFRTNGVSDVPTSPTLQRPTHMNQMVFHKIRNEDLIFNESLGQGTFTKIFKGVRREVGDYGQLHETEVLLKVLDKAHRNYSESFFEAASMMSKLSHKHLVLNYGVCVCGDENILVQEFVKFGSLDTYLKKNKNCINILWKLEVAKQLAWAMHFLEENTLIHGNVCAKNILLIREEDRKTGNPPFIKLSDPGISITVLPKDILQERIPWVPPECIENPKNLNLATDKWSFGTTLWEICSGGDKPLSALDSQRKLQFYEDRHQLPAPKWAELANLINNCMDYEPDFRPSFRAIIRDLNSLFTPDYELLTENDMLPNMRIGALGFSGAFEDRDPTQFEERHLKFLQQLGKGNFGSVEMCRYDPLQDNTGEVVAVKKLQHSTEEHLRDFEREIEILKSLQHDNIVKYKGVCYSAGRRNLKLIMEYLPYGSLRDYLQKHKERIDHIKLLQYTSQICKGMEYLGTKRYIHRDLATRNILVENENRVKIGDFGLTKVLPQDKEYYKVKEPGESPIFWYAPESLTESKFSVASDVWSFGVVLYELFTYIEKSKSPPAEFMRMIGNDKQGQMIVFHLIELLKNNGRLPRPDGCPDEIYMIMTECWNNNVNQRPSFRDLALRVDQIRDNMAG

Row | Compound | IC50 (JAK2; [1]) [nM] | IC50 (ALK; [2]) [nM] | IC50 (JAK2; JAK2 Kinase Inhibition) [nM] | IC50 (ALK; ALK Kinase Inhibition) [nM]
1 | COc1ccccc1-c1cc(O)c2cnc(Nc3ccc(C4CCN(CC(N)=O)CC4)cc3)nn12 [Example 1260, 2-(4-{4-[5-Hydroxy-7-(2-methoxy-phenyl)-pyrrolo[2,1-f][1,2,4]triazin-2-ylamino]-phenyl}-piperidin-1-yl)-acetamide] | < 100 | 100 to 1000 | – | –
2 | COc1cc(-c2cccnc2)ccc1Nc1ncc2ccc(-c3ccccc3OC)n2n1 [Example 807, [7-(2-Methoxy-phenyl)-pyrrolo[2,1-f][1,2,4]triazin-2-yl]-(2-methoxy-4-pyridin-3-yl-phenyl)-amine] | > 10000 | 1000 to 10000 | – | –
3 | CS(=O)(=O)c1ccc(-c2ccc3cnc(Nc4ccc(N5CCOCC5)c(F)c4)nn23)cc1 [Example 189, (3-Fluoro-4-morpholin-4-yl-phenyl)-[7-(4-methanesulfonyl-phenyl)-pyrrolo[2,1-f][1,2,4]triazin-2-yl]-amine] | – | – | < 100 | > 10000
4 | COc1cc2c(cc1Nc1ncc3ccc(-c4cccc(S(=O)(=O)NC(C)(C)C)c4)n3n1)CCN(CCO)CC2 [Example 699] | 100 to 1000 | < 100 | – | –
5 | COc1ccccc1-c1ccc2cnc(Nc3cccc(C(N)=O)c3)nn12 [Example 164, 3-[7-(2-Methoxy-phenyl)-pyrrolo[2,1-f][1,2,4]triazin-2-ylamino]-benzamide] | – | – | < 100 | 100 to 1000
6 | COc1ccc(Cl)cc1-c1ccc2cnc(Nc3cccc(N4CCN(CC(C)(C)O)CC4)c3)nn12 [Example 219, 1-(4-{3-[7-(5-Chloro-2-methoxy-phenyl)-pyrrolo[2,1-f][1,2,4]triazin-2-ylamino]-phenyl}-piperazin-1-yl)-2-methyl-propan-2-ol] | – | – | < 100 | < 100
7 | CN1CCN(c2ccc(Nc3ncc4ccc(-c5ccc(C=O)o5)n4n3)cc2)CC1 [Example 1196, 5-{2-[4-(4-Methyl-piperazin-1-yl)-phenylamino]-pyrrolo[2,1-f][1,2,4]triazin-7-yl}-furan-2-carbaldehyde] | < 100 | 100 to 1000 | – | –

The remaining lines, values ahead:

Row | IC50 (JAK2; [1]) [nM] | IC50 (ALK; [2]) [nM] | IC50 (JAK2; JAK2 Kinase Inhibition) [nM] | IC50 (ALK; ALK Kinase Inhibition) [nM] | Compound
8 | < 100 | < 100 | – | – | COc1c(Nc2ncc3ccc(-c4ccccc4N(C)S(C)(=O)=O)n3n2)cccc1C1CCN(C)CC1 [Example 776, N-(2-{2-[2-Methoxy-3-(1-methyl-piperidin-4-yl)-phenylamino]-pyrrolo [2,1-f][1,2,4]triazin-7-yl}-phenyl)-N-methyl-methanesulfonamide]
9 | – | – | < 100 | > 10000 | COc1ccc2c(c1)cc1cnc(Nc3ccc(N4CCOCC4)cc3)nn12 [Example 268, (7-Methoxy-[1,2,4]triazino[1,6-a]indol-2-yl)-(4-morpholin-4-yl-phenyl)-amine]
10 | – | – | < 100 | 100 to 1000 | CC(=O)Nc1cc(Nc2ncc3ccc(-c4cccnc4)n3n2)ccc1C(C)(C)C [Example 308, N-[2-tert-Butyl-5-(7-pyridin-3-yl-pyrrolo[2,1-f][1,2,4]triazin-2-ylamino)-phenyl]-acetamide]
11 | < 100 | 100 to 1000 | – | – | Cn1ccc(-c2ccc3cnc(Nc4ccc(C5CCN(CC(N)=O)CC5)cc4)nn23)n1 [Example 955]
12 | – | – | < 100 | < 100 | CN1CCN(C2CCCN(c3ccc(Nc4ncc5ccc(-c6cccc(Cl)c6)n5n4)cc3)C2)CC1 (stereo not shown) [Example 350, [7-(3-Chloro-phenyl)-pyrrolo[2,1-f][1,2,4]triazin-2-yl]-{4-[3-(4-methyl-piperazin-1-yl)-piperidin-1-yl]-phenyl}-amine]
13 | < 100 | 1000 to 10000 | – | – | COc1ccccc1-c1ccc2cnc(Nc3ccc(C4C(=O)N(C)CCN4C)cc3)nn12 (stereo not shown) [Example 1076, 3-{4-[7-(2-Methoxy-phenyl)-pyrrolo[2,1-f][1,2,4]triazin-2-ylamino]-phenyl}-1,4-dimethyl-piperazin-2-one]
14 | > 10000 | 100 to 1000 | – | – | COc1c(Nc2ncc3ccc(-c4ccccc4N(C)S(C)(=O)=O)n3n2)cccc1C(=O)N1CCN(C)CC1 [Example 1230, N-(2-{2-[2-Methoxy-3-(4-methyl-piperazine-1-carbonyl)-phenylamino]-pyrrolo[2,1-f][1,2,4]triazin-7-yl}-phenyl)-N-methyl-methanesulfonamide]

Reference: patent publication US8471005B2 (Cephalon, Inc., priority 2008, dated 2013)
